Reference: patent US9061984B2 (University of Louisville Research Foundation, Inc., priority 2008, dated 2015)
Converted amounts (≈) assume the structure as drawn. Read-outs that look alike come from different tables or passages of the source.

Legend:
[1] = test system: 3T3 cells; experiment: Cell growth inhibition bioassay (sulforhodamine B); type: cell-based, mouse; settings: Mus musculus, NIH3T3; 48 h, SRB; read-out: GI50 in indicated cell line: 3T3
Method: (§1) The cytotoxicity of compounds was assayed as follows. […] Appropriate solvent controls were tested for comparison. The percent inhibition of cell growth relative to the control was evaluated colorimetrically using a sulforhodamine B dye by comparison to the control. The calorimetric procedure followed that published in Skehan et al., J. Nat. Cancer Inst., […], pp. 1107-1112 (1990) and Boyd & Paull, Drug Dev. Res., Vol. 34, pp. 91-109 (1995). […] The cell lines are: 3T3 cells are BALB/3T3 clone A31 embryonic mouse fibroblast cells; H460 cells are human large cell lung cancer cells; DU145 cells are human prostate carcinoma cells; MCF-7 cells are human breast adenocarcinoma cells; M-14 cells are human melanoma cells; HT-29 cells are human colon adenocarcinoma cells; PC3 cells are human prostate adenocarcinoma cells; K562 cells are human chronic myelogenous leukemia cells; and VERO cells are African Green Monkey kidney epithelial cells.

[2] = test system: DU145 cells; experiment: Cell growth inhibition bioassay (sulforhodamine B); type: cell-based, human; settings: Homo sapiens, DU-145; 48 h, SRB; read-out: GI50 in indicated cell line: DU145
Method: as §1

[3] = test system: H460 cells; experiment: Cell growth inhibition bioassay (sulforhodamine B); type: cell-based, human; settings: Homo sapiens, NCI-H460; 48 h, SRB; read-out: GI50 in indicated cell line: H460
Method: as §1

[4] = test system: HT-29 cells; experiment: Cell growth inhibition bioassay (sulforhodamine B); type: cell-based, human; settings: Homo sapiens, HT-29; 48 h, SRB; read-out: GI50 in indicated cell line: HT-29
Method: as §1

[5] = test system: K562 cells; experiment: Cell growth inhibition bioassay (sulforhodamine B); type: cell-based, human; settings: Homo sapiens, K562; 48 h, SRB; read-out: GI50 in indicated cell line: K562
Method: as §1

[6] = test system: M-14 cells; experiment: Cell growth inhibition bioassay (sulforhodamine B); type: cell-based, human; settings: Homo sapiens, M14; 48 h, SRB; read-out: GI50 in indicated cell line: M-14
Method: as §1

[7] = test system: MCF-7 cells; experiment: Cell growth inhibition bioassay (sulforhodamine B); type: cell-based, human; settings: Homo sapiens, MCF7; 48 h, SRB; read-out: GI50 in indicated cell line: MCF-7
Method: as §1

[8] = test system: VERO cells; experiment: Cell growth inhibition bioassay (sulforhodamine B); type: cell-based, African Green Monkey; settings: Chlorocebus sabaeus, Vero; 48 h, SRB; read-out: GI50 in indicated cell line: VERO
Method: as §1

[9] = test system: Trypanosoma cruzi (Tulahuen C4); experiment: In vitro anti-T. cruzi activity (β-galactosidase CPRG colorimetric assay in VERO monolayer); type: cell-based; settings: for Selectivity Index Lab B: IC50, VERO/IC50, T. cruzi; for IC50 / inhibition at 10 µg/mL: Trypanosoma cruzi, TULAHUEN, Vero; for inhibition at 10 µg/mL: 120 h, 10 μg/mL of each compound, 120 hours, read-out: T. cruzi Inhib. (%)
[10] = test system: M. tuberculosis H37Rv; experiment: Conventional aerobic (MABA) culture assay, luminescence MIC; type: cell-based, Mycobacterium tuberculosis; settings: Mycobacterium tuberculosis, 168 h; aerobic, 7 days, H37Rv
[11] = Toxicity to peritoneal macrophages (Trypan Blue count); type: cell-based, BALB/C mouse; settings: BALB/C, mouse, Cytotoxicity Macrophages IC50
Method: Peritoneal macrophages were prepared as follows. Non-inflammatory macrophages (10^6) were collected from each BALB/C mouse. The cells adhered at 37° C. after 2 h under 5% CO2 in a CO2 incubator. The plates were then rinsed two to three times with 0.5 mL of RPMI+buffer MOPS without fetal calf serum to eliminate non-adhering cells. The supernatant on the plates was replaced by fresh medium (RPMI+glutamine+FCS+antibiotics), 0.5 mL of medium per well. To determine the toxicity of the compounds to macrophages, dilutions of compounds were added on a part of the macrophages prepared above. […] The medium was then removed and 1 μL of sterile Trypan Blue was added. Cover glasses N° 1 were left where cells were plated and then the number of macrophages in a microscope was determined with a haemocytometer. All experiments were performed in triplicate.

[12] = test system: axenic amastigotes of L. amazonensis (strain MHOM/BR/76/LTB-012); settings: Table 8b
[13] = test system: axenic amastigotes of L. amazonensis (strain MHOM/BR/76/LTB-012); experiment: microbe, parasite or virus in culture; settings: Leishmania amazonensis
[14] = Cytotoxicity on VERO cells (MTT), anti-T. cruzi study; settings: African green monkey, VERO cells
[15] = test system: VERO cells; experiment: as above; settings: Chlorocebus sabaeus, Vero, read-out: IC50 VERO, Table 3
[16] = Lab A, read-out: T. cruzi IC50 Lab A
[17] = Lab B, read-out: T. cruzi IC50 Lab B
[18] = Table 2, read-out: IC50 - T. cruzi
[19] = Table 3, read-out: IC50 T. cruzi
[20] = 72 h, read-out: IC50 L. amazonensis
[21] = IC50 - VERO Cytotoxicity, Table 2

C=CCOc1cc(/C=N\Nc2ncnc3sc4c(c23)CCCC4)cc(OCC=C)c1Br [II-17]
GI50 [1]: < 0.98 µg/mL
GI50 [2]: < 0.98 µg/mL
GI50 [3]: 1.6 µg/mL (≈ 3.2 µM)
GI50 [4]: 1.9 µg/mL (≈ 3.8 µM)
GI50 [5]: 2 µg/mL (≈ 4 µM)
GI50 [6]: 6.4 µg/mL (≈ 12.8 µM)
GI50 [7]: 1.9 µg/mL (≈ 3.8 µM)
GI50 [8]: 2.2 µg/mL (≈ 4.4 µM)
Selectivity Index Lab B ([9]; Lab B): 0.4
IC50 [9, 16]: 10.2 µg/mL
IC50 [9, 17]: 7.7 µg/mL
MIC [10]: > 100 µg/mL
IC50 at 48 h [11]: 1700 nM
Selectivity Index [12]: 0.7
IC50 ([13]; read-out: L. amazonensis IC50): 2.6 µM
IC50 ([14]; Cytotoxicity VERO Lab B, Lab B): 3 µg/mL (≈ 6.01 µM)

C=CCOc1cc(OC)c(C(=O)/C=C/c2ccc(C(F)(F)F)cc2)c(OCC=C)c1 [Compound I-12, (2E)-1-[2-Methoxy-4,6-bis(2-propenyloxy)phenyl]-3-[4-(trifluoromethyl)phenyl]-2-propen-1-one]
inhibition at 10 µg/mL [9]: 64.2%
IC50 [9, 18]: 6.53 µg/mL
IC50 [9, 19]: 15.6 µM
IC50 [13, 20]: 128 µM
IC50 [14, 21]: 3 µg/mL (≈ 7.17 µM)
IC50 [15]: 7.2 µM

C=CCOc1cc(OC)c(C(=O)/C=C/c2ccco2)c(OCC=C)c1 [Compound I-28, (2E)-3-(2-furanyl)-1-[2-methoxy-4,6-bis(2-propenyloxy)phenyl]-2-propen-1-one]
inhibition at 10 µg/mL [9]: 59.1%
IC50 [9, 18]: 4.14 µg/mL
IC50 [9, 19]: 12.2 µM
IC50 [13, 20]: > 300 µM
IC50 [14, 21]: 65 µg/mL (≈ 191 µM)
IC50 [15]: 191 µM

CC(C)(C)c1ccc(/C=N\Nc2ncnc3sc4c(c23)CCCC4)cc1 [II-08]
GI50 [1]: 8.4 µg/mL (≈ 23 µM)
GI50 [2]: 8 µg/mL (≈ 21.9 µM)
GI50 [3]: 2.3 µg/mL (≈ 6.31 µM)
GI50 [4]: 5.7 µg/mL (≈ 15.6 µM)
GI50 [5]: 2.3 µg/mL (≈ 6.31 µM)
GI50 [6]: 11 µg/mL (≈ 30.2 µM)
GI50 [7]: 2.3 µg/mL (≈ 6.31 µM)
GI50 [8]: 2.5 µg/mL (≈ 6.86 µM)
Selectivity Index Lab B ([9]; Lab B): 1.2
IC50 [9, 16]: 1.3 µg/mL
IC50 [9, 17]: 4.1 µg/mL
MIC [10]: > 100 µg/mL
IC50 at 48 h [11]: 2400 nM
Selectivity Index [12]: 3.8
IC50 ([13]; read-out: L. amazonensis IC50): 0.6 µM
IC50 ([14]; Cytotoxicity VERO Lab B, Lab B): 5 µg/mL (≈ 13.7 µM)

CC(C)c1ccc(/C=N\Nc2ncnc3sc4c(c23)CCCC4)cc1 [II-07]
GI50 [1]: 3.3 µg/mL (≈ 9.42 µM)
GI50 [2]: 3.8 µg/mL (≈ 10.8 µM)
GI50 [3]: 2.1 µg/mL (≈ 5.99 µM)
GI50 [4]: 2.1 µg/mL (≈ 5.99 µM)
GI50 [5]: 1.4 µg/mL (≈ 3.99 µM)
GI50 [6]: 6.2 µg/mL (≈ 17.7 µM)
GI50 [7]: 1.8 µg/mL (≈ 5.14 µM)
GI50 [8]: 2.1 µg/mL (≈ 5.99 µM)
Selectivity Index Lab B ([9]; Lab B): 0.5
IC50 [9, 16]: 0.9 µg/mL
IC50 [9, 17]: 1.8 µg/mL
MIC [10]: > 100 µg/mL
IC50 at 48 h [11]: 3000 nM
Selectivity Index [12]: 2.3
IC50 ([13]; read-out: L. amazonensis IC50): 1.3 µM
IC50 ([14]; Cytotoxicity VERO Lab B, Lab B): 1 µg/mL (≈ 2.85 µM)

C=CCOc1cc(OC)c(C(=O)/C=C/c2ccc(OC)cc2OC)c(OCC=C)c1 [Compound I-17, (2E)-3-(2,4-Dimethoxyphenyl)-1-[2-methoxy-4,6-bis(2-propenyloxy)phenyl]-2-propen-1-one]
inhibition at 10 µg/mL [9]: 67.8%
IC50 [9, 18]: 5.38 µg/mL
IC50 [9, 19]: 13.1 µM
IC50 [13, 20]: 134 µM
IC50 [14, 21]: 38 µg/mL (≈ 92.6 µM)
IC50 [15]: 92.6 µM

C(=N/Nc1ncnc2sc3c(c12)CCCC3)/c1ccc2ccccc2c1 [II-03]
GI50 [1]: 10 µg/mL (≈ 27.9 µM)
GI50 [2]: 8.7 µg/mL (≈ 24.3 µM)
GI50 [3]: 7.4 µg/mL (≈ 20.6 µM)
GI50 [4]: 6.9 µg/mL (≈ 19.2 µM)
GI50 [5]: 2.2 µg/mL (≈ 6.14 µM)
GI50 [6]: 12.6 µg/mL (≈ 35.1 µM)
GI50 [7]: 3.3 µg/mL (≈ 9.21 µM)
GI50 [8]: 2.9 µg/mL (≈ 8.09 µM)
Selectivity Index Lab B ([9]; Lab B): 1.1
IC50 [9, 17]: 4.8 µg/mL
MIC [10]: > 100 µg/mL
IC50 at 48 h [11]: 5700 nM
Selectivity Index [12]: 0.4
IC50 ([13]; read-out: L. amazonensis IC50): 14 µM
IC50 ([14]; Cytotoxicity VERO Lab B, Lab B): 5 µg/mL (≈ 13.9 µM)

C=CCOc1cc(OC)c(C(=O)/C=C/c2ccc(O)cc2)c(OCC=C)c1 [Compound I-09, (2E)-1-[2-Methoxy-4,6-bis(2-propenyloxy)phenyl]-3-(4-hydroxyphenyl)-2-propen-1-one]
inhibition at 10 µg/mL [9]: 52.6%
IC50 [9, 18]: 7.44 µg/mL
IC50 [9, 19]: 20.3 µM
IC50 [13, 20]: 85.2 µM
IC50 [14, 21]: 28 µg/mL (≈ 76.4 µM)
IC50 [15]: 76.4 µM
